This note sets out measurements from patent publication US20240116985A1, “STAPLED PEPTIDES AND METHODS THEREOF” (priority 2020, published 2024).

The target of this test is T1, full-length beta-Catenin (Uniprot ID P35222) (Homo sapiens, UniProt P35222).
T1 construct: 10 nM full-length beta-Catenin (Uniprot ID P35222)
T1 sequence (P35222 1-781): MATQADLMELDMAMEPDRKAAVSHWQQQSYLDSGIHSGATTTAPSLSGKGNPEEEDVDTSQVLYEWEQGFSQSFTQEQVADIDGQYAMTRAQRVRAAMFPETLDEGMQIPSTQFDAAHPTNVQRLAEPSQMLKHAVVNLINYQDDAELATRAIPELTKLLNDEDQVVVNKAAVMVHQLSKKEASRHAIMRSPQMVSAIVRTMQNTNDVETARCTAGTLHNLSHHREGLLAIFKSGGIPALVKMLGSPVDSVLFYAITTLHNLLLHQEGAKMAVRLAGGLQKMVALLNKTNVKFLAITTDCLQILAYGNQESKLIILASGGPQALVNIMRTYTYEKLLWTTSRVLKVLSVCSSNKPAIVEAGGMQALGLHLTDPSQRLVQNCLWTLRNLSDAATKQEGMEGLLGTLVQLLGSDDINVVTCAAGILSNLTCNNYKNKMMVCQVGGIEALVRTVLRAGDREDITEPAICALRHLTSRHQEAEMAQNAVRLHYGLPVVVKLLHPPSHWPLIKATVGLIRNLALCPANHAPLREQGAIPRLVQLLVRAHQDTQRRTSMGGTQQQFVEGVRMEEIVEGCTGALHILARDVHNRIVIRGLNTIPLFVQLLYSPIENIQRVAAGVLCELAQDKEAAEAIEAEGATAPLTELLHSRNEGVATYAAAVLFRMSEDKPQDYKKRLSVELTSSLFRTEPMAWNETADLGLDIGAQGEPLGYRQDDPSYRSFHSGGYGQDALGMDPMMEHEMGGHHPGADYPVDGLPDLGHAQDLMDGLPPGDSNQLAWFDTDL
As to the kind of experiment: Fluorescence polarization IC50 (beta-catenin / 5FAM-TCF4 10-53 competition). The class given is binding. The following applies: fluorescence polarization; read-out: beta-Catenin FP IC50.
For the compound `CC(=O)N1CCC[C@]12CC=CCCCC1(CCCC=CCCCOC(=O)N3CC[C@@](C(=O)N[C@@H](Cc4ccccc4Cl)C(=O)N[C@@H](Cc4csc5ccccc45)C(=O)N[C@@H](CCC(N)=O)C(N)=O)(C3)NC(=O)[C@H]([C@@H](C)O)NC(=O)[C@H](Cc3ccccc3)NC(=O)[C@H](C)NC(=O)CNC(=O)[C@H](CN(CC(=O)O)CC(F)(F)F)NC(=O)[C@H](CC(=O)O)NC1=O)NC(=O)[C@H](CC(C)(C)C)NC(=O)[C@H](CC(=O)O)NC2=O` (stereo partly drawn) [I-1690, Ac-PL3-Asp-Npg-B5-Asp-TfeGA-Gly-Ala-Phe-Thr-PyrS2-2C1F-BztA-Gln-NH2], the IC50 was found to be 11 nM.
The same measure for `CC(=O)N1CCC[C@]12CCCCCCC1(CCCCCCCCOC(=O)N3CC[C@@](C(=O)N[C@@H](Cc4ccccc4Cl)C(=O)N[C@@H](Cc4csc5ccccc45)C(=O)N[C@@H](CCO)C(N)=O)(C3)NC(=O)[C@H](CCO)NC(=O)[C@H](Cc3ccccc3)NC(=O)[C@H](C)NC(=O)[C@H](C)NC(=O)[C@H](CN(CC(=O)O)CC(F)(F)F)NC(=O)[C@H](CC(=O)O)NC1=O)NC(=O)[C@H](CC(C)(C)C)NC(=O)[C@H](CC(=O)O)NC2=O` (stereo partly drawn) [I-1699, Ac-PL3-Asp-Npg-B5-Asp-TfeGA-Ala-Ala-Phe-Hse-PyrS2-2C1F-BztA-Hse-NH2]: 533 nM; for `CC(=O)N1CCC[C@]12CC=CCCCC1(CCCC=CCCCOC(=O)N3CC[C@@](C(=O)N[C@@H](CC4CCCC4)C(=O)N[C@@H](Cc4csc5ccccc45)C(=O)N[C@@H](CCC(N)=O)C(N)=O)(C3)NC(=O)[C@H](CC(C)C)NC(=O)[C@H](Cc3ccccc3)NC(=O)[C@H](C)NC(=O)[C@H](C)NC(=O)[C@H](CN(CC(=O)O)CC(F)(F)F)NC(=O)[C@H](CC(=O)O)NC1=O)NC(=O)[C@H](CC(C)(C)C)NC(=O)[C@H](CC(=O)O)NC2=O` (stereo partly drawn) [I-1703, Ac-PL3-Asp-Npg-B5-Asp-TfeGA-Ala-Ala-Phe-Leu-PyrS2-CypA-BztA-Gln-NH2]: 24 nM.
For the compound `CC(=O)N1CCC[C@]12CCCCCCC1(CCCCCCCCOC(=O)N3CC[C@@](C(=O)N[C@@H](Cc4ccccc4C#N)C(=O)N[C@@H](Cc4csc5ccccc45)C(=O)N[C@@H](CCC(N)=O)C(N)=O)(C3)NC(=O)[C@H](CC(C)C)NC(=O)[C@H](Cc3ccccc3)NC(=O)[C@H](C)NC(=O)[C@H](C)NC(=O)[C@H](CN(CC(=O)O)CC(F)(F)F)NC(=O)[C@H](CC(=O)O)NC1=O)NC(=O)[C@H](CC(C)(C)C)NC(=O)[C@H](CC(=O)O)NC2=O` (stereo partly drawn) [I-1712, Ac-PL3-Asp-Npg-B5-Asp-TfeGA-Ala-Ala-Phe-Leu-PyrS2-2CNF-BztA-Gln-NH2], the IC50 came to 597 nM.
For `CC(=O)N1CCC[C@]12CCCCCCC1(CCCCCCCCOC(=O)N3CC[C@@](C(=O)N[C@@H](Cc4ccsc4)C(=O)N[C@@H](Cc4csc5ccccc45)C(=O)N[C@@H](CC(N)=O)C(N)=O)(C3)NC(=O)[C@H](CC(C)C)NC(=O)[C@H](Cc3ccccc3)NC(=O)[C@H](C)NC(=O)[C@H](C)NC(=O)[C@H](CN(CC(=O)O)CC(F)(F)F)NC(=O)[C@H](CC(=O)O)NC1=O)NC(=O)[C@H](CC(C)(C)C)NC(=O)[C@H](CC(=O)O)NC2=O` (stereo partly drawn) [I-1715, Ac-PL3-Asp-Npg-B5-Asp-TfeGA-Ala-Ala-Phe-Leu-PyrS2-3Thi-BztA-Asn-NH2] the value was 95 nM; for `CC(=O)N1CCC[C@]12CCCCCCC1(CCCCCCCCOC(=O)N3CC[C@@](C(=O)N[C@@H](Cc4ccsc4)C(=O)N[C@@H](Cc4csc5ccccc45)C(=O)N[C@H](C(N)=O)[C@@H](C)O)(C3)NC(=O)[C@H](CC(C)C)NC(=O)[C@H](Cc3ccccc3)NC(=O)[C@H](C)NC(=O)[C@H](C)NC(=O)[C@H](CN(CC(=O)O)CC(F)(F)F)NC(=O)[C@H](CC(=O)O)NC1=O)NC(=O)[C@H](CC(C)(C)C)NC(=O)[C@H](CC(=O)O)NC2=O` (stereo partly drawn) [I-1716, Ac-PL3-Asp-Npg-B5-Asp-TfeGA-Ala-Ala-Phe-Leu-PyrS2-3Thi-BztA-Thr-NH2], 224 nM; for `CC(=O)N1CCC[C@]12CCCCCCC1(CCCCCCCCOC(=O)N3CC[C@@](C(=O)N[C@@H](Cc4ccsc4)C(=O)N[C@@H](Cc4csc5ccccc45)C(=O)N[C@@H](Cc4ccccc4C(N)=O)C(N)=O)(C3)NC(=O)[C@H](CC(C)C)NC(=O)[C@H](Cc3ccccc3)NC(=O)[C@H](C)NC(=O)[C@H](C)NC(=O)[C@H](CN(CC(=O)O)CC(F)(F)F)NC(=O)[C@H](CC(=O)O)NC1=O)NC(=O)[C@H](CC(C)(C)C)NC(=O)[C@H](CC(=O)O)NC2=O` (stereo partly drawn) [I-1717, Ac-PL3-Asp-Npg-B5-Asp-TfeGA-Ala-Ala-Phe-Leu-PyrS2-3Thi-BztA-2cbmf-NH2], 249 nM.
For `CC(=O)N1CCC[C@]12CCCCCCC1(CCCCCCCCOC(=O)N3CC[C@@](C(=O)N[C@@H](Cc4ccsc4)C(=O)N[C@@H](Cc4csc5ccccc45)C(=O)N[C@@H](Cc4cccc(C(N)=O)c4)C(N)=O)(C3)NC(=O)[C@H](CC(C)C)NC(=O)[C@H](Cc3ccccc3)NC(=O)[C@H](C)NC(=O)[C@H](C)NC(=O)[C@H](CN(CC(=O)O)CC(F)(F)F)NC(=O)[C@H](CC(=O)O)NC1=O)NC(=O)[C@H](CC(C)(C)C)NC(=O)[C@H](CC(=O)O)NC2=O` (stereo partly drawn) [I-1718, Ac-PL3-Asp-Npg-B5-Asp-TfeGA-Ala-Ala-Phe-Leu-PyrS2-3Thi-BztA-3cbmf-NH2] the value was 382 nM; for `CC(=O)NCCCC[C@H](NC(=O)[C@H](Cc1csc2ccccc12)NC(=O)[C@H](Cc1ccsc1)NC(=O)[C@]12CCN(C1)C(=O)OCCCCCCCCC1(CCCCCC[C@]3(CCCN3C(C)=O)C(=O)N[C@@H](CC(=O)O)C(=O)N[C@@H](CC(C)(C)C)C(=O)N1)C(=O)N[C@@H](CC(=O)O)C(=O)N[C@@H](CN(CC(=O)O)CC(F)(F)F)C(=O)N[C@@H](C)C(=O)N[C@@H](C)C(=O)N[C@@H](Cc1ccccc1)C(=O)N[C@@H](CC(C)C)C(=O)N2)C(N)=O` (stereo partly drawn) [I-1719, Ac-PL3-Asp-Npg-B5-Asp-TfeGA-Ala-Ala-Phe-Leu-PyrS2-3Thi-BztA-AcLys-NH2], 187 nM.
On to `CC(=O)N1CCC[C@]12CCCCCCC1(CCCCCCCCOC(=O)N3CC[C@@](C(=O)N[C@@H](Cc4ccsc4)C(=O)N[C@@H](Cc4csc5ccccc45)C(=O)N[C@@H](C)C(N)=O)(C3)NC(=O)[C@H](CC(C)C)NC(=O)[C@H](Cc3ccccc3)NC(=O)[C@H](C)NC(=O)[C@H](C)NC(=O)[C@H](CN(CC(=O)O)CC(F)(F)F)NC(=O)[C@H](CC(=O)O)NC1=O)NC(=O)[C@H](CC(C)(C)C)NC(=O)[C@H](CC(=O)O)NC2=O` (stereo partly drawn) [I-1720, Ac-PL3-Asp-Npg-B5-Asp-TfeGA-Ala-Ala-Phe-Leu-PyrS2-3Thi-BztA-Ala-NH2], for which the IC50 came out at 212 nM.
For `CC(=O)N1CCC[C@]12CC=CCCCC1(CCCC=CCCCOC(=O)N3CC[C@@](C(=O)N[C@@H](Cc4ccccc4Cl)C(=O)N[C@@H](Cc4csc5ccccc45)C(=O)N[C@@H](CCC(N)=O)C(N)=O)(C3)NC(=O)[C@H](CC(N)=O)NC(=O)[C@H](Cc3ccccc3N)NC(=O)[C@H](C)NC(=O)[C@H](C)NC(=O)[C@H](CC(=O)O)NC(=O)[C@H](CC(=O)O)NC1=O)NC(=O)[C@H](CC(C)(C)C)NC(=O)[C@H](CC(=O)O)NC2=O` (stereo partly drawn) [I-1727, Ac-PL3-Asp-Npg-B5-Asp-Asp-Ala-Ala-2NH2F-Asn-PyrS2-2C1F-BztA-Gln-NH2] the value was 28 nM; for `CC(=O)N1CCC[C@]12CC=CCCCC1(CCCC=CCCCOC(=O)N3CC[C@@](C(=O)N[C@@H](Cc4ccsc4)C(=O)N[C@@H](Cc4csc5ccccc45)C(=O)N[C@@H](CCC(N)=O)C(N)=O)(C3)NC(=O)[C@H](CC(N)=O)NC(=O)[C@H](Cc3ccccc3N)NC(=O)[C@H](C)NC(=O)[C@H](C)NC(=O)[C@H](CC(=O)O)NC(=O)[C@H](CC(=O)O)NC1=O)NC(=O)[C@H](CC(C)(C)C)NC(=O)[C@H](CC(=O)O)NC2=O` (stereo partly drawn) [I-1728, Ac-PL3-Asp-Npg-B5-Asp-Asp-Ala-Ala-2NH2F-Asn-PyrS2-3Thi-BztA-Gln-NH2], 14 nM.
For `CC(=O)N(CC(=O)O)C[C@@H]1NC(=O)[C@H](CC(=O)O)NC(=O)C2(CCCC=CCCCOC(=O)N3CC[C@@](C(=O)N[C@@H](Cc4ccsc4)C(=O)N[C@@H](Cc4csc5ccccc45)C(=O)N[C@@H](CCC(N)=O)C(N)=O)(C3)NC(=O)[C@H](CC(C)C)NC(=O)[C@H](Cc3ccccc3)NC(=O)[C@H](C)NC(=O)[C@H](C)NC1=O)CCCC=CC[C@]1(CCCN1C(C)=O)C(=O)N[C@@H](CC(=O)O)C(=O)N[C@@H](CC(C)(C)C)C(=O)N2` (stereo partly drawn) [I-1729, Ac-PL3-Asp-Npg-B5-Asp-[Ac]GA-Ala-Ala-Phe-Leu-PyrS2-3Thi-BztA-Gln-NH2] the value was 9 nM; for `CC(=O)N1CCC[C@]12CC=CCCCC1(CCCC=CCCCOC(=O)N3CC[C@@](C(=O)N[C@@H](Cc4ccsc4)C(=O)N[C@@H](Cc4csc5ccccc45)C(=O)N[C@@H](CCC(N)=O)C(N)=O)(C3)NC(=O)[C@H](CC(C)C)NC(=O)[C@H](Cc3ccccc3)NC(=O)[C@H](C)NC(=O)[C@H](C)NC(=O)[C@H](CN(CC(=O)O)C(=O)C(F)(F)F)NC(=O)[C@H](CC(=O)O)NC1=O)NC(=O)[C@H](CC(C)(C)C)NC(=O)[C@H](CC(=O)O)NC2=O` (stereo partly drawn) [I-1730, Ac-PL3-Asp-Npg-B5-Asp-[CF3CO]GA-Ala-Ala-Phe-Leu-PyrS2-3Thi-BztA-Gln-NH2], 38 nM.

Usually IC50 stands for the point on the concentration scale where inhibition reaches its midpoint.
